The record followed here is the METLIN SMRT retention time set (Domingo-Almenara et al. 2019).

The nature of the series: gradient 5% acetonitrile 3 min, to 50% in 2 min, to 85% in 15 min, held 3 min, 100 µL/min. Conditions: column: Zorbax Extend-C18 2.1 x 50 mm; eluents: water / acetonitrile, 0.1% formic acid. A digest of the protocol:
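Pure standards were analyzed in mixtures of ~100 molecules using HPLC coupled to a quadrupole time-of-flight mass spectrometer, in both positive and negative ionization mode. Separation used a Zorbax Extend-C18 column (2.1 × 50 mm, 1.8 μm) at 100 μL/min, with water and acetonitrile each containing 0.1% formic acid. Dead and dwell volumes were 40 μL and 900 μL, and data were collected over 3 months. Retention time was read from computationally picked adduct peaks, each inspected manually.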
Turning to `COc1cn(CC(=O)Nc2cccc([N+](=O)[O-])c2)c(CN2CCC(C)CC2)cc1=O`, the RP-LC retention time stood at 567 s. In turn, `CCOc1ccccc1C(=O)n1nc(C)c(S(=O)(=O)N2CCC(C)CC2)c1C` gave an RP-LC retention time of 1230 s.

On to `Cc1nc2cc(N3CCCC(C(=O)NCc4cccc(F)c4)C3)cnc2nc1C` (configuration not stated), for which the RP-LC retention time amounted to 735 s. Regarding `COc1ccc(N2CC(c3nc(-c4ccc5c(c4)OCO5)no3)CC2=O)cc1` (configuration not stated), the RP-LC retention time was determined as 891 s.

Compound `CCOC(=O)N1CCC(NC(=O)c2csc(-n3cccc3)n2)CC1` registered an RP-LC retention time of 760 s. As for `CCCn1cc(CCNC(=O)Nc2ccc3c(c2)OCCO3)c2cccnc21`, the RP-LC retention time was found to be 704 s. `Cc1ccc(C)c(NC(=O)Cc2csc(C)n2)c1` yielded an RP-LC retention time of 788 s. The value for `O=C(Cn1c(=O)c2cc(-c3cccs3)nn2c2ncccc21)NCc1ccc(Cl)cc1` was 885 s.

In turn, `Cc1ccc2[nH]cc(CCN3CC(C(=O)Nc4ccc(Br)cc4)CC3=O)c2c1` (configuration not stated) yielded an RP-LC retention time of 916 s. `Cc1ccc2c(c1)C(=O)NC1(CCN(C(=O)NCc3ccccc3)CC1)N2C` registered an RP-LC retention time of 731 s. Next, `CCc1cccc(NC(=O)C2CCCN(S(=O)(=O)c3c[nH]c(C(=O)N4CCCCCC4)c3)C2)c1` (configuration not stated): 911 s. Turning to `COc1ccc(NC(=O)Cn2nc(C(=O)N3CCCC3)c3ccccc32)c(OC)c1`, the RP-LC retention time was found to be 822 s.

`COc1ccc(NC(=O)C2CC(=O)N(c3n[nH]c4cccc(F)c34)C2)c(OC)c1` (configuration not stated) showed an RP-LC retention time of 713 s.

`COc1ccc(NC(=O)C2CC(=O)N(CCc3c[nH]c4ccc(F)cc34)C2)cc1` (configuration not stated) showed an RP-LC retention time of 758 s.

Turning to `O=C(Cn1nc(C(=O)N2CCCC2)c2ccccc21)N1CCN(C2CCCCC2)CC1`, the RP-LC retention time came to 597 s. On to `O=C(O)c1ccc2c(c1)nc(Nc1cccc(Cl)c1)c1ccncc12`, for which the RP-LC retention time turned out to be 845 s. With `Cc1ccc2c(c1)N(Cc1ccccc1)N=C(C(=O)N1CCCC1)S2(=O)=O`, the RP-LC retention time was 876 s.

In turn, `O=C(NCc1cccc(F)c1)c1ccc2c(c1)Sc1ncccc1C(=O)N2C1CC1` had an RP-LC retention time of 823 s. On to `CCOCCOC1CCN(C(=O)c2ccoc2)CC1`, for which the RP-LC retention time worked out at 679 s. With `Cc1nnc2c(=O)n(CC(=O)NCc3ccc(F)c(Cl)c3)c3cccnc3n12`, the RP-LC retention time worked out at 723 s. Next, `Cc1cccc(Nc2nc(C(=O)NCCc3ccco3)nc3ccccc23)c1`: 808 s; `CCc1nnc(-c2nnc(N3CCCC3)c3ccccc23)o1`: 625 s; `CCn1cc(-c2nc(C(=O)Nc3cc(F)cc(F)c3)cs2)c2cccnc21`: 1180 s. `Cc1nncn1C1CN(C(=O)c2ccc(OC(F)(F)F)cc2)C1`: the RP-LC retention time was 654 s. On to `COc1ccc(-c2cn3c(CC(=O)Nc4cc(F)ccc4F)csc3n2)cc1OC`, for which the RP-LC retention time is 744 s. `O=C(Nc1ccc2nc3n(c(=O)c2c1)CCCC3)Nc1ccccc1Br` showed an RP-LC retention time of 735 s. `COC(=O)c1cc(S(=O)(=O)N2CCCC2C(=O)Nc2cccc(C(F)(F)F)c2)cn1C` (configuration not stated) yielded an RP-LC retention time of 971 s.

In turn, `CSc1nnc(-c2nn(C)c3c2CN(C(=O)c2ccc(F)c(F)c2)CC3)n1C` registered an RP-LC retention time of 720 s.

For the compound `COc1cc(NC(=O)N2CCN(CCn3c(C(F)(F)F)nc4cccnc43)CC2)cc(OC)c1`, the RP-LC retention time stood at 642 s. The compound `COc1ccccc1-c1noc(C2CCCN2C(=O)Nc2ccc(F)cc2)n1` (configuration not stated) showed an RP-LC retention time of 842 s. For `O=C(C1CC(=O)N(c2ccccc2)C1)N1CCC2(CC1)OCCS2` (configuration not stated), the RP-LC retention time turned out to be 682 s.

For `Cc1cccc(CNS(=O)(=O)c2ccc(-c3c(C)noc3C)cc2)c1`, the RP-LC retention time was 983 s.
